Reference: paper PMC12624434 (ACS Pharmacology & Translational Science, 2025)
Values joined by “and” are separate entries in the source; they are usually repeats but may differ in a detail not shown here. Equal entries are not always repeated. “Also recorded” adds a separate entry of the source. Where two headings read alike, the source gives them in different places. Each block holds one compound with its values, some of them ahead of it.

Legend:
NRP1 b1 domain = target: T1, NRP1 b1 domain (Homo sapiens, UniProt O14786); test: SPR binding to immobilized NRP1 b1 domain (Biacore 4000, CM5 chip); settings: steady-state binding, 25 °C, mean ± SD; for Kd: read-out: SPR NRP1 b1 domain equilibrium KD
T1 construct: with the purified recombinant NRP1 b1 domain immobilized on the chip; inferred from Ni-NTA capture), TEV-cleavable (cleaved yes); made in house; host or cells: E. coli Rosetta (DE3)
T1 sequence (O14786 275-424 limits assumed): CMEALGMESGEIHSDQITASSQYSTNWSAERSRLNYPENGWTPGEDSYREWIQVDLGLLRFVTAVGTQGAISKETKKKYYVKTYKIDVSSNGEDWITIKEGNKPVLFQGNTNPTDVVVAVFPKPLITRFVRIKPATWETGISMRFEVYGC
Experimental: Surface Plasmon Resonance experiments were performed using a Biacore 4000 instrument at a constant temperature of 25 °C. Sensor chips, buffer stock solutions, and immobilization reagents were purchased from GE Healthcare. Recombinant human NRP1-b1 was produced in-house and recombinant human NRP1-ECD (extracellular domain) was purchased from ACRO (catalogue number NR1-H5A228). All other reagents were obtained from Sigma.
PBS containing 0.05% surfactant P20 was used as the running buffer during immobilization. NRP1-b1 was immobilized onto a CM5 chip using random amine coupling. The four flow cells were treated in the same way to optimize throughput. In summary, spots 1 and 2 were activated with the coupling reagents EDC and NHS for 10 min. NRP1-b1 at a concentration of 20 μg/mL in 10 mM sodium acetate pH 5 was injected onto the surface for 10 and 5 min in spots 1 and 2, respectively to generate surfaces with high and low density. […] The unmodified spot 3 was used as a reference.
PBS buffer containing 0.05% surfactant P20 and 3% DMSO was used as the running buffer and sample dilution buffer throughout these experiments. Dose–responses were obtained using a 2-fold sample dilution from 16 μM to 31 nM, using an injection time of 60 s. Surface regeneration between injections was not necessary, but a wash step with 1 M NaCl was included after injection of the highest concentration sample for each compound.
Binding curves were corrected for variations in DMSO concentration and normalized by molecular weight. Binding results to high and low-density surfaces were processed independently and the average ± SD is presented. K Ds reported are derived from steady-state binding responses and therefore correspond to the equilibrium binding affinity of the compounds.

[1] = Solubility (observation during SPR); assay type: physicochemical; settings: noted with SPR data fitting
[2] = Pharmacokinetics in mice, 2 mg/kg iv; assay type: in vivo; settings: female, BALB/c, mouse, plasma; for clearance: iv, 2 mg/kg; for AUC: read-out: AUCall
Experimental: To test compound drug-like properties, selected compounds with low IC50 were further evaluated for their pharmacokinetic (PK) profile. 6–8 week-old BABL/c female mice were used. Two mg/kg of compounds was formulated in 7.5% DMSO and 92.5% PBS solution and intravenously dosed into the tail vein as a bolus. Blood samples were collected by cardiac puncture at 5, 15, 30, 60, 180, and 240 min post dosing. Plasma samples were prepared by centrifugation at 7000 rpm for 5 min, and supernatants were collected, immediately snap-frozen on dry ice and stored at −20 °C. Samples were analyzed by liquid chromatography-tandem mass spectrometry using electrospray ionization and data was analyzed by WinNonlin software.

NRP1-a1,b1 = target: T2, NRP1-a1,b1 (Homo sapiens, UniProt O14786); test: bt-VEGFA cell-free competition binding assay (plate-based)
T2 sequence (O14786 273-427 limits assumed): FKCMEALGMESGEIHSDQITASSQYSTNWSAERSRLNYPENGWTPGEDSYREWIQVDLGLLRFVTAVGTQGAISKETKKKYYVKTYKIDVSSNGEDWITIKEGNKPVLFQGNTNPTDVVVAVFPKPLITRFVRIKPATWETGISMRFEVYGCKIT
Experimental: The assay was conducted as previously described. Briefly, the 96-well plates were precoated with NRP1 protein at 3 μg/mL overnight at 4 °C. On the following day, the plates were treated with blocking buffer (PBS containing 1%1% BSA) and washed three times with wash buffer (PBS containing 0.1% Tween-20). The various concentrations of compounds diluted in PBS containing 1%1% DMSO were added, followed by addition of 0.25 nM of bt-VEGFA165. After 2 h of incubation at room temperature, the plates were washed three times with wash buffer. The bound bt-VEGFA165 to NRP1 was detected by streptavidin– horseradish peroxidase conjugates and the enzyme substrate, and measured using a Tecan Genius plate reader at 450 nm with a reference wavelength at 595 nm. Nonspecific binding was determined in the absence of NRP1-coated wells of the plates.

[3] = pK BHX scale; no reference given; cited from earlier work
[4] = plate-based assay, Figure 2D, read-out: IC50, competitive inhibition of bt-VEGFA binding to NRP1
[5] = 0.25 nM bt-VEGFA165, mean ± SEM, at least three independent experiments, read-out: Competition analysis bt-VEGFA, cell-free NRP1-a1,b1 IC50

Kd (NRP1 b1 domain): 1.44 ± 0.13 µM
Structure (SMILES): Cn1cncc1CNCc1cccc(-c2cc(S(=O)(=O)Nc3ccsc3C(=O)N[C@@H](CCCNC(=N)N)C(=O)O)c3ncccc3c2)c1 [Compound 12a, (2S)-5-Guanidino-2-[[3-[[6-[3-[[(3-methylimidazol-4-yl)-methylamino]-methyl]-phenyl]-8-quinolyl]-sulfonylamino]-thiophene-2-carbonyl]-amino]-pentanoic Acid, Formic Acid]

Kd (NRP1 b1 domain): 2.27 ± 0.07 µM
Structure (SMILES): CNCc1ccc(-c2cc(S(=O)(=O)Nc3ccsc3C(=O)N[C@@H](CCCNC(=N)N)C(=O)O)c3ncccc3c2)cc1 [Compound 12b, (2S)-5-Guanidino-2-[[3-[[6-[4-(methylaminomethyl)-phenyl]-8-quinolyl]-sulfonylamino]-thiophene-2-carbonyl]-amino]-pentanoic Acid, Formic Acid]

Kd (NRP1 b1 domain): 0.8 ± 0.14 µM
Structure (SMILES): Cn1cncc1CNCc1ccc(-c2cc(S(=O)(=O)Nc3ccsc3C(=O)N[C@@H](CCCNC(=N)N)C(=O)O)c3ncccc3c2)cc1 [Compound 12c, (2S)-5-Guanidino-2-[[3-[[6-[4-[[(3-methylimidazol-4-yl)-methylamino]-methyl]-phenyl]-8-quinolyl]-sulfonylamino]-thiophene-2-carbonyl]-amino]-pentanoic Acid, Formic Acid]

Kd (NRP1 b1 domain): 0.65 ± 0.05 µM
Structure (SMILES): N=C(N)NCCC[C@H](NC(=O)c1sccc1NS(=O)(=O)c1cc(-c2cccc(CN)c2)cc2cccnc12)C(=O)O [Compound 12d, (2S)-2-[[3-[[6-[3-(Aminomethyl)-phenyl]-8-quinolyl]-sulfonylamino]-thiophene-2-carbonyl]-amino]-5-guanidino-pentanoic Acid, Formic Acid]

Kd (NRP1 b1 domain): 0.92 ± 0.15 µM
Structure (SMILES): N=C(N)NCCC[C@H](NC(=O)c1sccc1NS(=O)(=O)c1cc(-c2ccc(CN)cc2)cc2cccnc12)C(=O)O [Compound 12e, (2S)-2-[[3-[[6-[4-(Aminomethyl)-phenyl]-8-quinolyl]-sulfonylamino]-thiophene-2-carbonyl]-amino]-5-guanidino-pentanoic Acid, Formic Acid]

Kd (NRP1 b1 domain): 1.49 ± 0.2 µM
Structure (SMILES): N=C(N)NCCC[C@H](NC(=O)c1sccc1NS(=O)(=O)c1cc(-c2ccnc(N)c2)cc2cccnc12)C(=O)O [Compound 12f, (2S)-2-[[3-[[6-(2-Amino-4-pyridyl)-8-quinolyl]-sulfonylamino]-thiophene-2-carbonyl]-amino]-5-guanidino-pentanoic Acid, Formic Acid]

solubility [1]: poor solubility
AUC(0-inf) [2]: 491 ng·h/mL
AUC(0-t) [2]: 490 ng·h/mL
Cmax [2]: 2050 ng/mL
Tmax [2]: 4.8 min
Vd [2]: 0.569 L/kg
half-life [2]: 23.4 min
clearance [2]: 67.9 mL/min/kg
AUC [2]: 490 ng·h/mL
IC50 (NRP1-a1,b1; [4]): < 0.5 µM
Structure (SMILES): CN(C)c1nc(CNc2cc(S(=O)(=O)Nc3ccsc3C(=O)N[C@@H](CCCNC(=N)N)C(=O)O)c3ncccc3c2)cs1.O=CO [Compound 12g, (2S)-2-[[3-[[6-[[2-(Dimethylamino)-thiazol-4-yl]-methylamino]-8-quinolyl]-sulfonylamino]-thiophene-2-carbonyl]-amino]-5-guanidino-pentanoic Acid, Formic Acid]
SPR NRP1 b1 domain equilibrium KD (NRP1 b1 domain): did not converge; also recorded: Curve fit does not converge

Kd (NRP1 b1 domain): 1.04 ± 0.12 µM
Structure (SMILES): N=C(N)NCCC[C@H](NC(=O)c1sccc1NS(=O)(=O)c1cc(NCc2csc(N)n2)cc2cccnc12)C(=O)O [Compound 12i, (2S)-2-[[3-[[6-[(2-Aminothiazol-4-yl)-methylamino]-8-quinolyl]-sulfonylamino]-thiophene-2-carbonyl]-amino]-5-guanidino-pentanoic Acid, Formic Acid]

Kd (NRP1 b1 domain): 0.53 ± 0.14 µM
AUC(0-inf) [2]: 643 ng·h/mL
AUC(0-t) [2]: 640 ng·h/mL
Cmax [2]: 2500 ng/mL
Tmax [2]: 4.8 min
Vd [2]: 0.628 L/kg
half-life [2]: 36 min
clearance [2]: 51.9 mL/min/kg
AUC [2]: 640 ng·h/mL
IC50 (NRP1-a1,b1; [5]): 0.45 ± 0.01 µM
IC50 (NRP1-a1,b1; [4]): < 0.5 µM
Competition analysis bt-VEGFA, cell-free NRP1-a1,b1 Hill coefficient (NRP1-a1,b1; value in parentheses): 1.0
Structure (SMILES): CNc1nc(CNc2cc(S(=O)(=O)Nc3ccsc3C(=O)N[C@@H](CCCNC(=N)N)C(=O)O)c3ncccc3c2)cs1 [Compound 12j, (2S)-5-Guanidino-2-[[3-[[6-[[2-(methylamino)-thiazol-4-yl]-methylamino]-8-quinolyl]-sulfonylamino]-thiophene-2-carbonyl]-amino]-pentanoic Acid]

Kd (NRP1 b1 domain): 1.14 ± 0.12 µM
Structure (SMILES): N=C(N)NCCC[C@H](NC(=O)c1sccc1NS(=O)(=O)c1cc(NCc2cccc(N3CCOCC3)n2)cc2cccnc12)C(=O)O [Compound 12k, (2S)-5-Guanidino-2-[[3-[[6-[(6-morpholino-2-pyridyl)-methylamino]-8-quinolyl]-sulfonylamino]-thiophene-2-carbonyl]-amino]-pentanoic Acid]

Kd (NRP1 b1 domain): 1.23 ± 0.36 µM
Structure (SMILES): N=C(N)NCCC[C@H](NC(=O)c1sccc1NS(=O)(=O)c1cc(NCc2ccc(N)nc2)cc2cccnc12)C(=O)O [Compound 12l, (2S)-2-[[3-[[6-[(6-Amino-3-pyridyl)-methylamino]-8-quinolyl]-sulfonylamino]-thiophene-2-carbonyl]-amino]-5-guanidino-pentanoic Acid, Formic Acid]

Kd (NRP1 b1 domain): 7.71 ± 0.31 µM
Structure (SMILES): CN(C)c1ncc(CNc2cc(S(=O)(=O)Nc3ccsc3C(=O)N[C@@H](CCCNC(=N)N)C(=O)O)c3ncccc3c2)cn1 [Compound 12m, (2S)-2-[[3-[[6-[[2-(Dimethylamino)-pyrimidin-5-yl]-methylamino]-8-quinolyl]-sulfonylamino]-thiophene-2-carbonyl]-amino]-5-guanidino-pentanoic Acid]

Kd (NRP1 b1 domain): 0.82 ± 0.1 µM
Structure (SMILES): CN(C)c1ccc(CNc2cc(S(=O)(=O)Nc3ccsc3C(=O)N[C@@H](CCCNC(=N)N)C(=O)O)c3ncccc3c2)cn1 [Compound 12n, (2S)-2-[[3-[[6-[[6-(Dimethylamino)-3-pyridyl]-methylamino]-8-quinolyl]-sulfonylamino]-thiophene-2-carbonyl]-amino]-5-guanidino-pentanoic Acid]

Kd (NRP1 b1 domain): 1.41 ± 0.16 µM
IC50 (NRP1-a1,b1; [5]): 0.9 ± 0.16 µM
Structure (SMILES): N=C(N)NCCC[C@H](NC(=O)c1sccc1NS(=O)(=O)c1cccc2cccnc12)C(=O)O [Compound 12o, (S)-5-Guanidino-2-{[3-(quinoline-8-sulfonylamino)-thiophene-2-carbonyl]-amino}-pentanoic Acid]

Kd (NRP1 b1 domain): 0.51 µM and 2.54 µM
Structure (SMILES): N=C(N)NCCC[C@H](NC(=O)c1sccc1NS(=O)(=O)c1cc(-c2csc(N)n2)cc2cccnc12)C(=O)O [Compound 12q, (S)-2-({3-[6-(2-Amino-thiazol-4-yl)-quinoline-8-sulfonylamino]-thiophene-2-carbonyl}-amino)-5-guanidino-pentanoic Acid]

Structure (SMILES): CCOCC [diethyl ether]
pK BHX (hydrogen bond acceptor strength) [3]: 1.01

Structure (SMILES): c1c[nH]cn1 [imidazole]
pK BHX (hydrogen bond acceptor strength) [3]: 2.72

Structure (SMILES): c1ccc2ncccc2c1 [quinoline]
pK BHX (hydrogen bond acceptor strength) [3]: 1.89

Structure (SMILES): C1CCOC1 [tetrahydrofuran]
pK BHX (hydrogen bond acceptor strength) [3]: 1.28
